Laboratory results published in ChEMBL document CHEMBL5233226 (Eur J Med Chem, 2020).
*1 amine or outer side, *2 acyl side, *3 side chain or, on linkers, in order; H or OH if unused. Where a SMILES comes first, the peptide text is derived from it. Bridges are numbered along the chain shown (N, C = ends). TBMB = c1c(C[*:1])cc(C[*:3])cc1C[*:2]

Experiments:
Prothrombin [1] = molecular target: T1, Prothrombin (Homo sapiens, UniProt P00734); test: Inhibition of thrombin (unknown origin)
Plasma kallikrein [2] = molecular target: T2, Plasma kallikrein (Homo sapiens, UniProt P03952); test: Inhibition of plasma kallikrein (unknown origin)
T2 sequence (P03952 20-390 limits assumed): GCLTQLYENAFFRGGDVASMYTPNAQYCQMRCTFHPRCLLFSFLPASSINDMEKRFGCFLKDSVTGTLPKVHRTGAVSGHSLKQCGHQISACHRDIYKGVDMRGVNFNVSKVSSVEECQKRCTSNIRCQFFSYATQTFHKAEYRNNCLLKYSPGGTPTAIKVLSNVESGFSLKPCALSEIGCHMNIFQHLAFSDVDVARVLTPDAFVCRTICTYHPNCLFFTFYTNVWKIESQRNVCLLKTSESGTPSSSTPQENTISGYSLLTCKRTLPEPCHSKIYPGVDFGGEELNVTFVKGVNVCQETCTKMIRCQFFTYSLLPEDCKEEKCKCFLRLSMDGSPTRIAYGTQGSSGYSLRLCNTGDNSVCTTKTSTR
T2 sequence (P03952 391-638 limits assumed): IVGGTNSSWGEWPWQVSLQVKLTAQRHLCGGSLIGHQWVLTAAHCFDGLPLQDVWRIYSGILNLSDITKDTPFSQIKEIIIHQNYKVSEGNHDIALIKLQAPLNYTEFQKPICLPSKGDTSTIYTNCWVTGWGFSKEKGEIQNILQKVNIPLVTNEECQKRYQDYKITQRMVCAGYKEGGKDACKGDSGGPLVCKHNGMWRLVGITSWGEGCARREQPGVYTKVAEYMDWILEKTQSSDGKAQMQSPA

Coagulation factor X = Coagulation factor X (Homo sapiens, UniProt P00742); test: Inhibition of fXa (unknown origin)
Chain of Coagulation factor X (P00742 41-179 limits assumed): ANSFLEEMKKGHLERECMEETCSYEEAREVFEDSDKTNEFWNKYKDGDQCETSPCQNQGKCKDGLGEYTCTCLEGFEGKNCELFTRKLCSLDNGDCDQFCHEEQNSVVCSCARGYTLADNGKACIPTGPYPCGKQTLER
Chain of Coagulation factor X (P00742 235-488 limits assumed): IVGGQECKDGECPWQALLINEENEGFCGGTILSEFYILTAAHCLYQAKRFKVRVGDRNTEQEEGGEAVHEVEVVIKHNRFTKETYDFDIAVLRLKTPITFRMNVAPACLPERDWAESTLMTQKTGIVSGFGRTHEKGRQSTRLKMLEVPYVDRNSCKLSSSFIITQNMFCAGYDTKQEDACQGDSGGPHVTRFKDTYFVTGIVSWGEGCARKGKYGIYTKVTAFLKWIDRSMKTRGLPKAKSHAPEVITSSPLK

Coagulation factor XII [3] = molecular target: T3, Coagulation factor XII (Homo sapiens, UniProt P00748); test: Inhibition of fXIIa (unknown origin)
T3 sequence (P00748 whole entry): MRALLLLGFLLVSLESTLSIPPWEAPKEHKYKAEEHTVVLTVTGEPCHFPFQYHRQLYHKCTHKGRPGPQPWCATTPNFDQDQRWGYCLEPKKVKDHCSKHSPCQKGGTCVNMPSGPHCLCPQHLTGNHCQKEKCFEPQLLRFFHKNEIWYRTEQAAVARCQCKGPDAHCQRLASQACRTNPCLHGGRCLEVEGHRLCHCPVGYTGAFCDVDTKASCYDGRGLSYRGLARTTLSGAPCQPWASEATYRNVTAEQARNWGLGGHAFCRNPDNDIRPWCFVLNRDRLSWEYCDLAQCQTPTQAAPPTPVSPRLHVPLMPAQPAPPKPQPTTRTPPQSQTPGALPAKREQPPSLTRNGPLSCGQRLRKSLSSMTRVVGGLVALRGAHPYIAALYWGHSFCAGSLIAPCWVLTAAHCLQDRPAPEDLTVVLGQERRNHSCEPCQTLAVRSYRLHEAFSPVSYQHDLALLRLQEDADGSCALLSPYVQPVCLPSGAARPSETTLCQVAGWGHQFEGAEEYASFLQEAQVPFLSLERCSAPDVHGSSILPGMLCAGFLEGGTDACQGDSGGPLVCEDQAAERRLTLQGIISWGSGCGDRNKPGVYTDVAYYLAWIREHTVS

Coagulation factor XI [4] = molecular target: T4, Coagulation factor XI (Homo sapiens, UniProt P03951); test: Inhibition of fXIa (unknown origin)
T4 sequence (P03951 19-387 limits assumed): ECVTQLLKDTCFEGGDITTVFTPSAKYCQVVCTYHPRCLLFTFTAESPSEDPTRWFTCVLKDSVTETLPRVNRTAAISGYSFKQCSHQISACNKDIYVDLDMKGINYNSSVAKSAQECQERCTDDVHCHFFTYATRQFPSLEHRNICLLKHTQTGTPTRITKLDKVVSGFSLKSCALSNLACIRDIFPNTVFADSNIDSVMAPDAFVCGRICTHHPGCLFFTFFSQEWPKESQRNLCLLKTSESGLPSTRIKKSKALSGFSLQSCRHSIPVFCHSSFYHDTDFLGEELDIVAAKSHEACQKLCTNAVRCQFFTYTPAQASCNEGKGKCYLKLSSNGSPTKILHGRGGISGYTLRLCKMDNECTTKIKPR
T4 sequence (P03951 388-625 limits assumed): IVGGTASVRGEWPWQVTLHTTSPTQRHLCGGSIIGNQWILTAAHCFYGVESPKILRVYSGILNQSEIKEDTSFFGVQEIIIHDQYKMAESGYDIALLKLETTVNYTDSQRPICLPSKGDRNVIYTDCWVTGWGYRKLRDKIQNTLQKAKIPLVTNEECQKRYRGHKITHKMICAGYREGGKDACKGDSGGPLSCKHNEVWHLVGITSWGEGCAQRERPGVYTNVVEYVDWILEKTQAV

Plasma kallikrein [5] = molecular target: T2, Plasma kallikrein; test: Inhibition of human plasma kallikrein usingPro-Phe-Arg-AMC as substrate incubated for 5 mins; assay type: single protein
Plasma kallikrein [6] = molecular target: T2, Plasma kallikrein; test: Inhibition of human plasma kallikrein using H-D-Pro-Phe-Arg-p-nitroaniline as substrate assessed as inhibition constant
Plasminogen [7] = molecular target: T5, Plasminogen (Homo sapiens, UniProt P00747); test: Inhibition of plasmin (unknown origin)
T5 sequence (P00747 97-580 limits assumed): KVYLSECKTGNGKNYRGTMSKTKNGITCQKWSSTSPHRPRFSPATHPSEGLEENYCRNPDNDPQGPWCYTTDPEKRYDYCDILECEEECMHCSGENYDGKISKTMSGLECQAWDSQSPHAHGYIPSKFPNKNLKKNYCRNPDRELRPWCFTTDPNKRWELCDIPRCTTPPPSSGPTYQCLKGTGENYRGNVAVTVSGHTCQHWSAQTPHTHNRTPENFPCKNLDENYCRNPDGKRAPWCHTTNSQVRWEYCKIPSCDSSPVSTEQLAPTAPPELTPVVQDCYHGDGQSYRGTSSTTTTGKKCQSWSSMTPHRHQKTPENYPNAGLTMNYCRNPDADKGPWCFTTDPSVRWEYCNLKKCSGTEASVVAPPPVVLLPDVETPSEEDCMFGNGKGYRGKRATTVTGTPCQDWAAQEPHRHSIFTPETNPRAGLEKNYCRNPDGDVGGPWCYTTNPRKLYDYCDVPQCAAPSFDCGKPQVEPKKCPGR
T5 sequence (P00747 581-810 limits assumed): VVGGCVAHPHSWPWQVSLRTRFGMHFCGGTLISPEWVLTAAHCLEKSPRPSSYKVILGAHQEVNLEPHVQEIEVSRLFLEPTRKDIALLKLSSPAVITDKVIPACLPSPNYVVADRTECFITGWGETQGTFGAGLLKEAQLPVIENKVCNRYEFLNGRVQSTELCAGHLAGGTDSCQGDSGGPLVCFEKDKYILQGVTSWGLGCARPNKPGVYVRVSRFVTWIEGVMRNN

Plasma kallikrein [8] = molecular target: T2, Plasma kallikrein; test: Inhibition of human plasma kallikrein using H-DPro-Phe-Arg-AFC as substrate
Kallikrein-1 [9] = molecular target: T6, Kallikrein-1 (Homo sapiens, UniProt P06870); test: Inhibition of human KLK1 using H-DVal-Leu-Arg-AFC as substrate
T6 sequence (P06870 whole entry): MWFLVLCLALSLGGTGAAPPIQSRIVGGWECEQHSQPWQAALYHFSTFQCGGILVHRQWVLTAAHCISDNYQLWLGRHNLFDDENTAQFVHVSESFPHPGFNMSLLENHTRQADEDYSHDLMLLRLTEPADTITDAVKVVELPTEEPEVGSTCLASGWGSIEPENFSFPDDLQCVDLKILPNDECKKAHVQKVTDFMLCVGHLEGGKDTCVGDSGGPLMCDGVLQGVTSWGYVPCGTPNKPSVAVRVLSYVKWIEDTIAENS

Trypsin = Trypsin (Homo sapiens, UniProt P07477+P07478+P35030); test: Inhibition of trypsin (unknown origin); assay type: protein assay
[10] = molecular target: Urokinase-type plasminogen activator (Homo sapiens, UniProt P00749); test: Inhibition of Urokinase (unknown origin)
Kallikrein-1 [11] = molecular target: T6, Kallikrein-1; test: Inhibition of KLK1 (unknown origin)
Coagulation factor XII [12] = molecular target: T3, Coagulation factor XII; test: Inhibition of human fXIIa using Z-GGR-AMC as substrate assessed as inhibition constant by fluorescence plate reader analysis
Plasminogen [13] = molecular target: T5, Plasminogen; test: Inhibition of human plasmin using H-d-VLK-AM as substrate assessed as inhibition constant by fluorescence plate reader analysis
Prothrombin [14] = molecular target: T1, Prothrombin; test: Inhibition of human thrombin using Z-GGR-AMC as substrate assessed as inhibition constant by fluorescence plate reader analysis
Plasma kallikrein [15] = molecular target: Plasma kallikrein (Rattus norvegicus, UniProt P14272); test: Inhibition of rat recombinant plasma kallikrein using Z-FR-AMC as substrate assessed as inhibition constant by fluorescence plate reader analysis
Chain of Plasma kallikrein (Rattus norvegicus, UniProt P14272) (P14272 20-390 limits assumed): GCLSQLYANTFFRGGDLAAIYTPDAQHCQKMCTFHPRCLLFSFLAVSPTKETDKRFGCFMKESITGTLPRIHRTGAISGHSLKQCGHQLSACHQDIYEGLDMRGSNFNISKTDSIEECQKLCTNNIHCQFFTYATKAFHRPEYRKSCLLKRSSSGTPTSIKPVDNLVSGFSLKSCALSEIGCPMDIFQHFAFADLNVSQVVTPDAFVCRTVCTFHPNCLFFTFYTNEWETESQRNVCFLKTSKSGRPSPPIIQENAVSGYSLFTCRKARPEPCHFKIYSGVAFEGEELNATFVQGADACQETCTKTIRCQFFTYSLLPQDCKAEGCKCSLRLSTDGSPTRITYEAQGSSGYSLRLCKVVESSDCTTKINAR
Chain of Plasma kallikrein (Rattus norvegicus, UniProt P14272) (P14272 391-638 limits assumed): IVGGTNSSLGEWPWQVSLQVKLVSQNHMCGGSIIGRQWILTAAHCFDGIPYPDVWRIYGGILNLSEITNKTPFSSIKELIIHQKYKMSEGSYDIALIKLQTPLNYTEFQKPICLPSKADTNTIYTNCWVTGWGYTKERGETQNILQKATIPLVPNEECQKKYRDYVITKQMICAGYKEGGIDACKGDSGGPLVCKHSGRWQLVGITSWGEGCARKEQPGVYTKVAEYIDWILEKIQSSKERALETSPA

Coagulation factor XI [16] = molecular target: T4, Coagulation factor XI; test: Inhibition of human fXIa using Boc-FSR-AMC as substrate assessed as inhibition constant by fluorescence plate reader analysis
Kallikrein-1 [17] = molecular target: T6, Kallikrein-1; test: Inhibition of human KLK1
Coagulation factor XI [18] = molecular target: T4, Coagulation factor XI; test: Inhibition of human fXIa

In the case of `N=C(N)c1ccc(CNC(=O)c2cnn(Cc3ccccc3)c2)cc1`, the IC50 (Prothrombin [1]) is reported as > 10 µM, the IC50 (Plasma kallikrein [2]) is reported as 90 nM and the IC50 (Coagulation factor X) is reported as > 10 µM. For the same compound, the IC50 (Coagulation factor XII [3]) was > 10 µM and the IC50 (Coagulation factor XI [4]) was > 10 µM.
`Fc1c(CNc2ncnc3nc(Cc4ccc5ncc(Cl)cc5c4)[nH]c23)ccc2[nH]cc(Cl)c12` was tested, and the IC50 (Plasma kallikrein [5]) was < 100 nM.
An IC50 (Plasma kallikrein [6]) of 100 nM and a Ki (Plasma kallikrein [6]) of 0.1 nM were found for `NCc1cccc(-n2nc(C(N)=O)cc2C(=O)Nc2cc(C(NCC3CC3)c3ccccc3)ccc2F)c1` (stereo not drawn) in this work.
In the case of `Cc1cc(N)nc(C)c1CNc1ncnc2nc(Cc3ccc4ncc(C(F)(F)F)cc4c3)[nH]c12`, the IC50 (Plasma kallikrein [5]) is reported as < 100 nM.
An IC50 (Plasma kallikrein [2]) of 15000 nM and an IC50 (Plasminogen [7]) of 370 µM were found for `CC(C)COC(=O)c1ccc(NC(=O)[C@H](CCCNC(=N)N)NC(=O)C2CCC(CN)CC2)cc1` (stereo partly drawn) in this work.
An IC50 (Plasma kallikrein [8]) of 20 nM and an IC50 (Kallikrein-1 [9]) of 7.2 µM were found for `CCOc1ccc(C[C@@H](NC(=O)c2ccccc2)C(=O)N[C@H](C(=O)NCc2ccc(CN)cc2)[C@H](O)c2ccccc2)cc1` in this work.
`NC(CCC1CC1)(c1ccc(F)c(NC(=O)[C@H]2CC(F)(F)CN2C(=O)Nc2ccc(Cl)cn2)c1)c1ccccn1` (stereo partly drawn) was tested, and the IC50 (Plasma kallikrein [6]) was < 50 nM.
`Cc1cc(N)nc(C)c1CNC(=O)c1cncc(Cc2ccc3ncc(Cl)cc3c2)c1` was tested, and the IC50 (Plasma kallikrein [5]) was < 100 nM.
An IC50 (Trypsin) of 12 µM, an IC50 [10] of 350 µM and an IC50 (Plasma kallikrein [2]) of 1300 nM were found for `NCC1CCC(C(=O)N[C@@H](Cc2ccccc2)C(=O)Nc2ccc(CC(=O)O)cc2)CC1` (stereo partly drawn) in this work. The IC50 (Plasminogen [7]) was 620 µM.
With `CO[C@@H]1C[C@H](C(=O)Nc2cc(C(N)(CCC3CC3)c3ccccn3)ccc2F)N(C(=O)Nc2ccc(Cl)cn2)C1` (stereo partly drawn) the IC50 (Plasma kallikrein [6]) was < 50 nM.
An IC50 (Plasma kallikrein [2]) of 4.8 nM was found for `Nc1nn(Cc2ccc(Cn3ccccc3=O)cc2)cc1C(=O)N[C@H]1CCN(c2cccc(Cl)c2)C1` in this work.
An IC50 (Plasma kallikrein [6]) of 100 nM and a Ki (Plasma kallikrein [6]) of 0.1 nM were found for `NCc1cccc(-n2nc(C(F)(F)F)cc2C(=O)Nc2cccc(C(OCC3CC3)c3ccccc3)c2)c1` (stereo not drawn) in this work.
For `COC(=O)c1ccc(NC(=O)[C@H](CCCCN)NC(=O)C2CCC(CN)CC2)cc1` (stereo partly drawn), the IC50 (Plasma kallikrein [2]) was 50000 nM and the IC50 (Plasminogen [7]) was > 500 µM.
In the case of `NC(CCC1CC1)(c1ccc(F)c(NC(=O)[C@H]2C[C@@H](O)CN2C(=O)Nc2ccc(Cl)cc2)c1)c1ccccn1` (stereo partly drawn), the IC50 (Plasma kallikrein [6]) is reported as < 50 nM.
`COCc1nn(Cc2ccc(Cn3cc(F)ccc3=O)cc2)cc1C(=O)NCc1nccc(OC)c1F` was tested, and the IC50 (Trypsin) was > 40 µM, the IC50 (Prothrombin [1]) was > 40 µM and the IC50 (Plasminogen [7]) was > 40 µM. The IC50 (Kallikrein-1 [11]) was > 40 µM.
For `CC(N)C(=O)NC1CSCc2cc3cc(c2)CSCC(C(=O)NC(C)C(N)=O)NC(=O)C(CCCNC(=N)N)NC(=O)C(C(C)C)NC(=O)C(CC(N)=O)NC(=O)C(CSC3)NC(=O)C(C)NC(=O)C(CCCCN)NC(=O)C(Cc2ccccc2)NC1=O` (stereo not drawn) (H-ACFKACNVRCA-NH2; linker 2-6-10 via TBMB; configuration not given here), the Ki (Coagulation factor XII [12]) was > 50 µM, the Ki (Plasminogen [13]) was 5.2 nM and the IC50 (Prothrombin [14]) was > 50 µM. The Ki (Plasma kallikrein [15]) was 27.2 nM and the Ki (Coagulation factor XI [16]) was > 50 µM.
`Cc1cc(C)n(Cc2ccc(Cn3cc(C(=O)NCc4c(C)cc(N)nc4C)nn3)cc2)n1` was tested, and the IC50 (Plasma kallikrein [2]) was 2.9 nM, the IC50 (Kallikrein-1 [17]) was > 40 µM and the IC50 (Coagulation factor XI [18]) was > 10 µM.
An IC50 (Plasma kallikrein [8]) of 10 nM was found for `CCOc1ccc(C[C@@H](NC(=O)c2sccc2C)C(=O)N[C@@H](Cc2ccccc2)C(=O)NCc2ccc(CN)cc2)cc1` in this work.
In the case of `CCCOC(c1ccccc1)c1cccc(NC(=O)c2cc(C(F)(F)F)nn2-c2cccc(CN)c2)c1` (stereo not drawn), the IC50 (Plasma kallikrein [6]) is reported as > 50000 nM.
`CS(=O)(=O)c1cc(Cc2cc(C(=O)NCc3cnc4[nH]cc(Cl)c4c3)ccn2)ccc1Cn1ccccc1=O` was tested, and the IC50 (Plasma kallikrein [5]) was < 100 nM.
An IC50 (Plasma kallikrein [6]) of 100 nM was found for `NCc1cccc(-n2nc(C(F)(F)F)cc2C(=O)Nc2cc(C(OCC3CC3)c3ccccc3O)ccc2F)c1` (stereo not drawn) in this work.
`CO[C@@H]1C[C@H](C(=O)Nc2cc(C(N)(CCC3CC3)c3cccc(C#N)c3)ccc2F)N(C(=O)Nc2ccc(Cl)cn2)C1` (stereo partly drawn) was tested, and the IC50 (Plasma kallikrein [6]) was < 50 nM.
